Data taken from ChEMBL document CHEMBL3872243, “Synthesis of new morpholine-connected pyrazolidine derivatives and their antimicrobial, antioxidant, and cytotoxic activities” (2017).
Values after ≈ are worked out from the molar mass of the structure shown.

Tests used:
Assay type in all cases: functional
[1] = Antioxidant activity assessed as ABTS radical scavenging activity at 100 ug/ml after 30 mins
[2] = Cytotoxicity against human MCF7 cells after 48 hrs by MTT assay; conditions: MCF7, 48 h
Aspergillus niger = experiment: Antifungal activity against Aspergillus niger after 24 hrs by two fold dilution method
Staphylococcus aureus = experiment: Antibacterial activity against Staphylococcus aureus after 24 hrs by two fold dilution method
[3] = Antifungal activity against Microsporum audouinii after 24 hrs by two fold dilution method
Escherichia coli = experiment: Antibacterial activity against Escherichia coli after 24 hrs by two fold dilution method
[4] = Cytotoxicity against human HeLa cells after 48 hrs by MTT assay
[5] = Antioxidant activity assessed as reduction in AAPH free radical-induced linoleic acid peroxidation activity measured at 100 ug/ml by UV spectroscopic analysis; design: scale not given: the % may be the effect or the level left
[6] = system: Staphylococcus epidermidis; experiment: Antibacterial activity against Staphylococcus epidermidis after 24 hrs by two fold dilution method
[7] = Cytotoxicity against human HepG2 cells after 48 hrs by MTT assay; conditions: HepG2, 48 h
Klebsiella pneumoniae = experiment: Antibacterial activity against Klebsiella pneumoniae after 24 hrs by two fold dilution method
[8] = Antifungal activity against Cryptococcus neoformans after 24 hrs by two fold dilution method
Candida albicans = experiment: Antifungal activity against Candida albicans after 24 hrs by two fold dilution method
Pseudomonas aeruginosa = experiment: Antibacterial activity against Pseudomonas aeruginosa after 24 hrs by two fold dilution method

Compound | Activity [1] | GI50 [2] | LC50 [2] | TGI [2] | MIC (Aspergillus niger) | MIC (Staphylococcus aureus) | MIC [3] | MIC (Escherichia coli) | GI50 [4] | LC50 [4] | TGI [4] | Activity [5] | MIC [6] | GI50 [7] | LC50 [7] | TGI [7] | MIC (Klebsiella pneumoniae) | MIC [8] | MIC (Candida albicans) | MIC (Pseudomonas aeruginosa)
O=[N+]([O-])c1ccc(N2C(O)CC(c3ccccc3)N2C(c2ccccn2)N2CCOCC2)c([N+](=O)[O-])c1 (stereo not drawn) | 16.8% | 18.6 µM | 52.3 µM | 41.8 µM | > 100 µg/mL | 18 µg/mL (≈ 35.5 µM) | > 100 µg/mL | > 100 µg/mL | 21.6 µM | 87.4 µM | 54.7 µM | 51.3% | > 100 µg/mL | 29.1 µM | 67.5 µM | 46.8 µM | 4 µg/mL (≈ 7.9 µM) | 8 µg/mL (≈ 15.8 µM) | 8 µg/mL (≈ 15.8 µM) | 32 µg/mL (≈ 63.2 µM)
Cc1c(C)c2c(c(C)c1O)CCC(C)(C(=O)O)O2 (stereo not drawn) | 85.2% |  |  |  |  |  |  |  |  |  |  | 62.3% |  |  |  |  |  |  |  | 
COc1cccc2c1C(=O)c1c(O)c3c(c(O)c1C2=O)C[C@@](O)(C(=O)CO)C[C@@H]3O[C@H]1C[C@H](N)[C@H](O)[C@H](C)O1 [DOXORUBICIN] |  | 0.02 µM |  | 0.21 µM |  |  |  |  | 0.05 µM |  | 0.41 µM |  |  | 0.01 µM |  | 0.13 µM |  |  |  | 
O=[N+]([O-])c1ccc(C(N2CCOCC2)N2C(c3ccccc3)CC(O)N2c2ccc([N+](=O)[O-])cc2[N+](=O)[O-])cc1 (stereo not drawn) | 58.3% | 20.8 µM | > 100 µM | 59.3 µM |  | 1 µg/mL (≈ 1.82 µM) | 32 µg/mL (≈ 58.1 µM) | 64 µg/mL (≈ 116 µM) | 8.9 µM | 43.9 µM | 16.8 µM | 47.9% | 2 µg/mL (≈ 3.63 µM) | 49 µM | > 100 µM | 77.3 µM |  | 32 µg/mL (≈ 58.1 µM) |  | 
O=[N+]([O-])c1ccc(N2C(O)CC(c3ccccc3)N2C(c2ccco2)N2CCOCC2)c([N+](=O)[O-])c1 (stereo not drawn) | 20.7% | 32.1 µM | 82 µM | 56.4 µM | 2 µg/mL (≈ 4.04 µM) | 20 µg/mL (≈ 40.4 µM) | 0.5 µg/mL (≈ 1.01 µM) | 64 µg/mL (≈ 129 µM) | 30.8 µM | 80.7 µM | 52.1 µM | 42.8% | 16 µg/mL (≈ 32.3 µM) | 41.4 µM | > 100 µM | 64.8 µM | 16 µg/mL (≈ 32.3 µM) | > 100 µg/mL | 16 µg/mL (≈ 32.3 µM) | 64 µg/mL (≈ 129 µM)
O=[N+]([O-])c1ccc(N2C(O)CC(c3ccccc3)N2C(c2ccc(O)cc2)N2CCOCC2)c([N+](=O)[O-])c1 (stereo not drawn) | 81.6% |  | > 100 µM |  | > 100 µg/mL |  | 8 µg/mL (≈ 15.3 µM) | > 100 µg/mL | 41.3 µM | > 100 µM | 87.2 µM | 75.4% |  | 36.3 µM | > 100 µM | 65.3 µM | 8 µg/mL (≈ 15.3 µM) |  |  | 15 µg/mL (≈ 28.8 µM)
O=[N+]([O-])c1ccc(N2C(O)CC(c3ccccc3)N2C(c2cncs2)N2CCOCC2)c([N+](=O)[O-])c1 (stereo not drawn) | 24.6% | 34 µM | > 100 µM | 67.4 µM | 32 µg/mL (≈ 62.4 µM) | > 100 µg/mL | 64 µg/mL (≈ 125 µM) | 2 µg/mL (≈ 3.9 µM) | 37.9 µM | 78.9 µM | 51.9 µM | 21.5% | 32 µg/mL (≈ 62.4 µM) | 32 µM | 89.3 µM | 61.3 µM | > 100 µg/mL | 32 µg/mL (≈ 62.4 µM) | 32 µg/mL (≈ 62.4 µM) | 64 µg/mL (≈ 125 µM)
CC(C)=CCC/C(C)=C\C(N1CCOCC1)N1C(c2ccccc2)CC(O)N1c1ccc([N+](=O)[O-])cc1[N+](=O)[O-] (stereo not drawn) | 91.3% | 7.8 µM | 40.4 µM | 21.9 µM | 8 µg/mL (≈ 14.5 µM) | > 100 µg/mL | 16 µg/mL (≈ 29 µM) | 64 µg/mL (≈ 116 µM) | 13.8 µM | 71.4 µM | 29.6 µM | 84.5% | 8 µg/mL (≈ 14.5 µM) | 38.1 µM | > 100 µM | 69.1 µM | 8 µg/mL (≈ 14.5 µM) | 32 µg/mL (≈ 58 µM) | 0.5 µg/mL (≈ 0.906 µM) | 1 µg/mL (≈ 1.81 µM)
